These results are taken from patent publication US20150210624A1, “DEUTERATED 4-HYDROXYBUTYRIC ACID ANALOGS” (Concert Pharmaceuticals, Inc., priority 2012, published 2015).

Structures can show the parent of a compound that is named as a salt.

What is called AUC(0-inf) is the area under the concentration-time curve extrapolated to infinity. The low end stands for low exposure, the high end for high exposure. As a reminder, the half-life is the time needed for the level to fall by half in the phase considered. As a reminder, the Cmax is the highest concentration seen after dosing. For orientation: Tmax means the time at which the peak concentration occurs. In general, bioavailability refers to dose-corrected exposure relative to a reference, in per cent. A high value points to much systemic uptake.

The nature of data set [1]: In vivo pharmacokinetic study in rats, IV and PO dosing (Example 6). To be noted: rat; for AUC(0-inf) / clearance / half-life / Vd / Cmax / Tmax / concentration at 4 hr / bioavailability / concentration at 2 hr: plasma; for Vd: read-out: Vz; for concentration at 4 hr: Cmin at 4 hr; for bioavailability: 200 mg/kg, PO vs IV AUC0-∞. The method, then: The pharmacokinetics of exemplary compounds was determined by comparison with 4-hydroxybutyric acid by dosing the compounds in rats according to the following study design and sampling procedure.
The results of the in vivo studies are disclosed in the following table (Table 2): […]

The conditions of data set [2]: in humans; cited from earlier work.
Data set [3] in a line: In vivo pharmacokinetic study in rats, oral dosing (Example 7). To be noted: rat, 200 mg/kg PO; for AUC(0-inf) / Cmax / Tmax / half-life: in vivo, mean; for AUC0-∞ value relative to 4-hydroxybutyric acid, sodium salt: sodium salts. On the procedure: In a separate study, the pharmacokinetics of exemplary compounds IV-a, IV-b and IV-d was determined by comparison with 4-hydroxybutyric acid by dosing the compounds in rats orally. The study design was the same as for Example 6, except that sampling time points were as follows: predose, 5 min, 15 min, 30 min, 1 hour, 2 hours, 3 hours, 4 hours, and 5 hours (the 5 hour levels were not included in the for PK calculations). The results of the in vivo studies are disclosed in the following table (Table 3): […]

[4] abbreviates: 200 mg/kg IV, mean, calculated up to 2 hr.
[5] abbreviates: 200 mg/kg PO, mean, calculated up to 4 hr.
Where [6] appears, read: 200 mg/kg IV, mean, Cmin at 2 hr.

Turning to `O=C(O)CCCO` [4-hydroxybutyric acid, sodium salt, sodium salt of 4-hydroxybutyric acid, reference compound], in data set [1] (200 mg/kg IV, mean), the AUC(0-inf) was 427 µg·h/mL, the clearance worked out at 8 mL/min/kg and the Vd stood at 0.2 L/kg. The half-life in data set [1] (setting [4]) was 15.6 min. For the same molecule, in data set [1] (200 mg/kg PO, mean), the AUC(0-inf) was 170 µg·h/mL, the concentration peaked (Cmax) at 150 µg/mL, the Tmax is 30 min and the concentration at 4 hr stood at 2 µg/mL. Moreover, the half-life in data set [1] (setting [5]) was 36.6 min. Moreover, the bioavailability in data set [1] came to 40%. In data set [1] (setting [6]), the Cmin is given as 8′ ug/mL. Further, the half life in data set [2] is 30 to 60 min. For the same molecule, in data set [3], the AUC(0-inf) came to 165 µg·h/mL, the Cmax stood at 94 µg/mL, the time to peak (Tmax) turned out to be 47.4 min and the half-life is 60.6 min.
With `[2H]C([2H])(O)CCC(=O)O` [IV-a, sodium salt], in data set [3], the AUC(0-inf) is 335 µg·h/mL, the peak level (Cmax) was 168 µg/mL, the time to peak (Tmax) is 70.2 min and the half-life was 28.8 min. In data set [3], the “AUC0-∞ fold versus 4-hydroxybutyric acid, sodium salt” value is given as “(2.0X)”; the “Cmax fold versus 4-hydroxybutyric acid, sodium salt” value is on record as “(1.8X)”; the “AUC0-∞ value relative to 4-hydroxybutyric acid, sodium salt” value was “considerably increased”.
Take `[2H]C([2H])(O)CC([2H])([2H])C(=O)[O-].[Na+]` [IV-b, sodium salt, Sodium 2,2,4,4-d4-4-hydroxybutanoate]: in data set [1] (200 mg/kg IV, mean), the total exposure AUC(0-inf) was found to be 651 µg·h/mL, the clearance stood at 5 mL/min/kg and the Vd was determined as 0.3 L/kg. This molecule came in with a concentration at 2 hr in data set [1] (setting [6]) of 76 µg/mL. In addition, in data set [1] (setting [4]), the half-life is 37.8 min. Further, in data set [1] (200 mg/kg PO, mean), the AUC(0-inf) turned out to be 260 µg·h/mL, the maximum concentration (Cmax) was 151 µg/mL, the Tmax worked out at 37.8 min and the concentration at 4 hr was found to be 5 µg/mL. Besides, in data set [1] (setting [5]), the half-life was 56.4 min. For the same molecule, the bioavailability in data set [1] is 40%. The “AUC0-∞ fold versus 4-hydroxybutyric acid, sodium salt” value in data set [1] (200 mg/kg PO) is recorded as “(+1.5X)”. Besides, in data set [1] (from AUC0-∞ and t1/2 following IV administration), the “pharmacokinetic stability relative to 4-hydroxybutyric acid, sodium salt” value is “considerably increased”. Also, in data set [3], the total exposure AUC(0-inf) was 407 µg·h/mL, the peak concentration (Cmax) is 201 µg/mL, the Tmax amounted to 90 min and the half-life is 27.6 min. In data set [3], the “AUC0-∞ fold versus 4-hydroxybutyric acid, sodium salt” value is given as “(2.5X)”; the “Cmax fold versus 4-hydroxybutyric acid, sodium salt” value is given as “(2.1X)”; the “AUC0-∞ value relative to 4-hydroxybutyric acid, sodium salt” value is given as “considerably increased”.
`[2H]C([2H])(O)C([2H])([2H])C([2H])([2H])C(=O)O` [IV-d, sodium salt]: in data set [3], the area under the curve AUC(0-inf) was 404 µg·h/mL, the peak level (Cmax) was 188 µg/mL, the Tmax was 100 min and the half-life is 27.6 min. For the same molecule, in data set [3], the “AUC0-∞ fold versus 4-hydroxybutyric acid, sodium salt” value is given as “(2.4X)”; the “Cmax fold versus 4-hydroxybutyric acid, sodium salt” value was “(2.0X)”; the “AUC0-∞ value relative to 4-hydroxybutyric acid, sodium salt” value is on record as “considerably increased”.
Take `[2H]C([2H])(CCO)C(=O)[O-].[Na+]` [sodium 2,2-dideutero-4-hydroxybutanoate]: in data set [1] (200 mg/kg IV, mean), the AUC(0-inf) is 476 µg·h/mL, the clearance stood at 7 mL/min/kg and the Vd worked out at 0.2 L/kg. Moreover, the concentration at 2 hr in data set [1] (setting [6]) amounted to 19 µg/mL. For the same molecule, the half-life in data set [1] (setting [4]) was 19.8 min. In data set [1] (200 mg/kg PO, mean), the AUC(0-inf) was 193 µg·h/mL, the Cmax turned out to be 153 µg/mL, the time to peak (Tmax) was 37.8 min and the concentration at 4 hr came to 1 µg/mL. In data set [1] (setting [5]), the half-life is 35.4 min. In data set [1], this molecule yielded a bioavailability of 41%. For the same molecule, the “AUC0-∞ fold versus 4-hydroxybutyric acid, sodium salt” value in data set [1] (200 mg/kg PO) is “(+1.1X)”.
